# From PubChem BioAssay (NCI)
#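 Cultured in 96-well plates, cells were exposed to test compound for 48 hours across five concentrations. TGI denotes the concentration required for complete inhibition of growth.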
# Key:
# Experiment in all cases: NCI anticancer screen, dose series, 48 h
# HOP-92 NSCLC = tested on: HOP-92 NSCLC
# M14 melanoma = tested on: M14 melanoma
# TK-10 renal = tested on: TK-10 renal
# T-47D breast = tested on: T-47D breast
# NCI-H460 lung = tested on: NCI-H460 lung
# UO-31 renal = tested on: UO-31 renal
# NCI-H23 lung = tested on: NCI-H23 lung
# SR leukemia = tested on: SR leukemia
# RPMI-8226 leukemia = tested on: RPMI-8226 leukemia
# DU-145 prostate = tested on: DU-145 prostate
# RXF 393 renal = tested on: RXF 393 renal
# OVCAR-8 ovarian = tested on: OVCAR-8 ovarian
# HCT-15 colon = tested on: HCT-15 colon
# SW-620 colon = tested on: SW-620 colon
# MDA-N = tested on: MDA-N
# SF-295 CNS = tested on: SF-295 CNS
# COLO 205 colon = tested on: COLO 205 colon
# HT29 colon = tested on: HT29 colon
# HS 578T breast = tested on: HS 578T breast
# MDA-MB-435 = tested on: MDA-MB-435
# MOLT-4 leukemia = tested on: MOLT-4 leukemia
# IGROV1 ovarian = tested on: IGROV1 ovarian
# HCT-116 colon = tested on: HCT-116 colon
# OVCAR-4 ovarian = tested on: OVCAR-4 ovarian
# SK-OV-3 ovarian = tested on: SK-OV-3 ovarian
# MALME-3M melanoma = tested on: MALME-3M melanoma
# NCI-H226 lung = tested on: NCI-H226 lung
# LOX IMVI melanoma = tested on: LOX IMVI melanoma
# NCI/ADR-RES ovarian = tested on: NCI/ADR-RES ovarian
# OVCAR-5 ovarian = tested on: OVCAR-5 ovarian
# A498 renal = tested on: A498 renal
# KM12 colon = tested on: KM12 colon
# UACC-62 melanoma = tested on: UACC-62 melanoma
# SK-MEL-2 melanoma = tested on: SK-MEL-2 melanoma
# OVCAR-3 ovarian = tested on: OVCAR-3 ovarian
# MCF7 breast = tested on: MCF7 breast
# SN12C renal = tested on: SN12C renal
# HOP-62 NSCLC = tested on: HOP-62 NSCLC
# K-562 leukemia = tested on: K-562 leukemia
# SK-MEL-28 melanoma = tested on: SK-MEL-28 melanoma
# PC-3 prostate = tested on: PC-3 prostate
# UACC-257 melanoma = tested on: UACC-257 melanoma
# SNB-75 CNS = tested on: SNB-75 CNS
# CAKI-1 renal = tested on: CAKI-1 renal
# BT-549 breast = tested on: BT-549 breast
# U251 CNS = tested on: U251 CNS
# SNB-19 CNS = tested on: SNB-19 CNS
# CCRF-CEM leukemia = tested on: CCRF-CEM leukemia
# SK-MEL-5 melanoma = tested on: SK-MEL-5 melanoma
# SF-268 CNS = tested on: SF-268 CNS
# A549 NSCLC = tested on: A549 NSCLC
# NCI-H522 lung = tested on: NCI-H522 lung
# HCC-2998 colon = tested on: HCC-2998 colon
# 786-0 renal = tested on: 786-0 renal
# MDA-MB-231 breast = tested on: MDA-MB-231 breast
# EKVX NSCLC = tested on: EKVX NSCLC
# SF-539 CNS = tested on: SF-539 CNS
# ACHN renal = tested on: ACHN renal
smiles,measurement,setting,value
O=C(N/N=C\c1cccc2ccccc12)Nc1ccccc1,TGI,HOP-92 NSCLC,> 100 µM
same,TGI,M14 melanoma,> 100 µM
same,TGI,TK-10 renal,> 100 µM
same,TGI,T-47D breast,> 100 µM
same,TGI,NCI-H460 lung,> 100 µM
same,TGI,UO-31 renal,> 100 µM
same,TGI,NCI-H23 lung,> 100 µM
same,TGI,SR leukemia,> 100 µM
same,TGI,RPMI-8226 leukemia,> 100 µM
same,TGI,DU-145 prostate,> 100 µM
same,TGI,RXF 393 renal,> 100 µM
same,TGI,OVCAR-8 ovarian,> 100 µM
same,TGI,HCT-15 colon,> 100 µM
same,TGI,SW-620 colon,> 100 µM
same,TGI,MDA-N,> 100 µM
same,TGI,SF-295 CNS,> 100 µM
same,TGI,COLO 205 colon,> 100 µM
same,TGI,HT29 colon,> 100 µM
same,TGI,HS 578T breast,> 100 µM
same,TGI,MDA-MB-435,> 100 µM
same,TGI,MOLT-4 leukemia,> 100 µM
same,TGI,IGROV1 ovarian,> 100 µM
same,TGI,HCT-116 colon,> 100 µM
same,TGI,OVCAR-4 ovarian,> 100 µM
same,TGI,SK-OV-3 ovarian,> 100 µM
same,TGI,MALME-3M melanoma,> 100 µM
same,TGI,NCI-H226 lung,> 100 µM
same,TGI,LOX IMVI melanoma,> 100 µM
same,TGI,NCI/ADR-RES ovarian,> 100 µM
same,TGI,OVCAR-5 ovarian,> 100 µM
same,TGI,A498 renal,> 100 µM
same,TGI,KM12 colon,> 100 µM
same,TGI,UACC-62 melanoma,> 100 µM
same,TGI,SK-MEL-2 melanoma,> 100 µM
same,TGI,OVCAR-3 ovarian,> 100 µM
same,TGI,MCF7 breast,> 100 µM
same,TGI,SN12C renal,> 100 µM
same,TGI,HOP-62 NSCLC,> 100 µM
same,TGI,K-562 leukemia,> 100 µM
same,TGI,SK-MEL-28 melanoma,> 100 µM
same,TGI,PC-3 prostate,> 100 µM
same,TGI,UACC-257 melanoma,> 100 µM
same,TGI,SNB-75 CNS,> 100 µM
same,TGI,CAKI-1 renal,> 100 µM
same,TGI,BT-549 breast,> 100 µM
same,TGI,U251 CNS,> 100 µM
same,TGI,SNB-19 CNS,> 100 µM
same,TGI,CCRF-CEM leukemia,> 100 µM
same,TGI,SK-MEL-5 melanoma,> 100 µM
CCOC(=O)c1cn2c(n1)sc1cc(OC)ccc12,TGI,HOP-92 NSCLC,> 100 µM
same,TGI,M14 melanoma,> 100 µM
same,TGI,TK-10 renal,> 100 µM
same,TGI,NCI-H460 lung,> 100 µM
same,TGI,UO-31 renal,> 100 µM
same,TGI,NCI-H23 lung,> 100 µM
same,TGI,RPMI-8226 leukemia,> 100 µM
same,TGI,DU-145 prostate,24.6 µM
same,TGI,SF-268 CNS,> 100 µM
same,TGI,A549 NSCLC,> 100 µM
same,TGI,RXF 393 renal,64.1 µM
same,TGI,OVCAR-8 ovarian,> 100 µM
same,TGI,HCT-15 colon,> 55.3 µM
same,TGI,SW-620 colon,> 100 µM
same,TGI,MDA-N,> 22.6 µM
same,TGI,SF-295 CNS,> 65.5 µM
same,TGI,COLO 205 colon,> 27.5 µM
same,TGI,NCI-H522 lung,> 100 µM
same,TGI,HT29 colon,20.2 µM
same,TGI,HCC-2998 colon,> 100 µM
same,TGI,HS 578T breast,81.2 µM
same,TGI,MDA-MB-435,3.48 µM
same,TGI,786-0 renal,> 100 µM
same,TGI,MOLT-4 leukemia,> 100 µM
same,TGI,IGROV1 ovarian,> 100 µM
same,TGI,HCT-116 colon,> 43.9 µM
same,TGI,OVCAR-4 ovarian,> 100 µM
same,TGI,SK-OV-3 ovarian,> 100 µM
same,TGI,MDA-MB-231 breast,> 100 µM
same,TGI,MALME-3M melanoma,> 100 µM
same,TGI,NCI-H226 lung,98.2 µM
same,TGI,LOX IMVI melanoma,> 100 µM
same,TGI,EKVX NSCLC,> 100 µM
same,TGI,NCI/ADR-RES ovarian,> 87.3 µM
same,TGI,OVCAR-5 ovarian,> 100 µM
same,TGI,A498 renal,> 100 µM
same,TGI,KM12 colon,> 100 µM
same,TGI,UACC-62 melanoma,> 100 µM
same,TGI,SK-MEL-2 melanoma,> 100 µM
same,TGI,OVCAR-3 ovarian,> 44.8 µM
same,TGI,MCF7 breast,> 100 µM
same,TGI,SF-539 CNS,> 100 µM
same,TGI,SN12C renal,> 100 µM
same,TGI,HOP-62 NSCLC,> 100 µM
same,TGI,K-562 leukemia,> 100 µM
same,TGI,SK-MEL-28 melanoma,> 100 µM
same,TGI,PC-3 prostate,> 100 µM
same,TGI,UACC-257 melanoma,> 100 µM
same,TGI,SNB-75 CNS,> 100 µM
same,TGI,CAKI-1 renal,> 100 µM
same,TGI,ACHN renal,> 100 µM
same,TGI,BT-549 breast,> 100 µM
same,TGI,U251 CNS,21.9 µM
same,TGI,SNB-19 CNS,> 100 µM
same,TGI,SK-MEL-5 melanoma,> 44.3 µM
